Laboratory results from patent US8410089B2, “Fused heterocyclic ring compound” (Takeda Pharmaceutical Company Limited, priority 2009, dated 2013).

Tests used:
human GPR119 = biological target: T1, human GPR119 (Homo sapiens, UniProt Q8TDV5); assay: Human GPR119 agonist activity with increase of intracellular cAMP concentration as index (CRE-luciferase reporter assay in hGPR119/CRE-luc/CHO(dhfr-) cells); type: cell-based; settings: 1 μM test compound, 2 hr incubation; luciferase activity with 10 μM N-[4-(methylsulfonyl)phenyl]-5-nitro-6-{4-[4-(trifluoromethoxy)phenoxy]piperidin-1-yl}pyrimidin-4-amine = 100%, DMSO = 0%
T1 construct: expressed in transfected cells
T1 sequence (Q8TDV5 1-335): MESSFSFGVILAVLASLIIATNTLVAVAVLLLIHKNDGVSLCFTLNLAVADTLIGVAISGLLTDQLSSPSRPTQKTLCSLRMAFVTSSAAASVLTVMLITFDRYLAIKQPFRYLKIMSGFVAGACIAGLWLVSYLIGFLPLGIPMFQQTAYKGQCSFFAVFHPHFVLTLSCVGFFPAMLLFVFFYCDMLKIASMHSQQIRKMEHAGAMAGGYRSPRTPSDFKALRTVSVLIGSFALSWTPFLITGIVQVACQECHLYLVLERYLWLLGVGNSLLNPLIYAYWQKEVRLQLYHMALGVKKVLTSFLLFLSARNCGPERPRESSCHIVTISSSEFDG
Experimental: Evaluation of Human GPR119 Agonist Activity with Increase of Intracellular Camp Concentration as Index
(1) Construction of Expression Plasmid of Human GPR119 Gene
Using High Fidelity RNA PCR Kit (Takara Bio Inc.), human GPR119 gene was cloned by PCR using cDNA library synthesized from human brain mRNA (Clontech) as a template and synthetic DNA having the following sequence. Primer 1 and Primer 2 were is prepared by adding cleavage sites for Sal I and Nhe I based on the base sequence information of human GPR119 gene.
PCR was performed using Pyrobest DNA polymerase (Takara Bio Inc.). The obtained PCR product was cloned to pUC118 (Takara Bio Inc.), and the base sequence was […] and digested with restriction enzymes Sal I, Nhe I. The obtained DNA fragment was inserted into an animal cell expression vector pAKKO-111H (plasmid same as pAKKO-1.111H described in Biochem. Biophys. Acta, Hinuma, S. et al., 1219, 251-259 (1994)) similarly digested with Sal I, Nhe I, whereby an expression plasmid pAKKO-111H/hGPR119 was prepared.
(2) Construction of Reporter Plasmid
Zeocin resistance gene was cloned by PCR using plasmid pcDNA3.1/Zeo (Invitrogen) as a template, synthetic DNA having the following sequences wherein cleavage sites for restriction enzymes Sal I and BamH I are added to before and after a region containing SV40 Ori and a region containing SV40pA, which are located at the upstream and downstream of Zeocin resistance gene of this plasmid, as a primer set, and KOD polymerase (TOYOBO).
The obtained PCR product was inserted into pCR-BluntII (Invitrogen). A fragment containing a Zeocine resistance gene obtained by digesting the plasmid with restriction enzymes Sal I and BamH I was inserted into plasmid pGL3(R2.2)-Basic Vector (promega) similarly digested with Sal I and Bam HI to give Zeocin resistance plasmid pGL3(R2.2)/Zeocin-Basic Vector.
A reporter plasmid containing 4 cAMP responsive elements (CRE) connected in tandem was prepared using the following 5′-terminal phosphorylated synthetic DNA.
First, a DNA fragment containing a CRE sequence obtained by annealing CRE-Upper and CRE-Lower and elongating with KOD polymerase was inserted into pCR-BluntII to give pCR-BluntII-CRE. A fragment cleaved from pCR-BluntII-CRE with restriction enzymes Kpn I and Hind III was inserted into pGL3(R2.2)/Zeocin-Basic Vector similarly digested with Kpn I and Hind III to give reporter plasmid pGL3(R2.2)/Zeocin-CRE-luc.
(3) Introduction of Human GPR119 Gene and Reporter Gene into CHO(dhfr-) Cells and Acquirement of Expressing Cell
CHO(dhfr-) cells in MEMα (minimum essential medium alpha) (Nikken bio medical laboratory) medium containing 10% fetal bovine serum, 100 U/mL penicillin and 100 μg/mL streptomycin (Invitrogen) were detached by a treatment with trypsin-EDTA (ethylenediaminetetraacetic acid) (Invitrogen), the cells were washed with PBS (Phosphate-buffered saline), centrifuged (1000 rpm, 5 min) and suspended in PBS at a cell density of 1×10^7 cells/mL. Then, DNA was introduced into the cell by a gene pulser (Bio-Rad) under the following conditions. That is, 1×10^7 cells, plasmid pGL3(R2.2)/Zeocin-CRE-luc (15 μg), which was obtained in (2) and linearized with BssH II, and pAKKO-111H (5 μg) were added in a 0.4 cm gap cuvette, and the mixture was electroporated at voltage […], capacitance 950 μF. The cells were placed in the above-mentioned medium, cultured for 24 hr, and the cells were detached and centrifuged. The cells were diluted to 250 cells/well, plated in a 96 well plate (Corning) and cultivated in a CO2 incubator at 37° C. to give a transformant. Then, forskolin was added to the obtained transformant and a strain (CRE-luc/CHO(dhfr-) cell) that induces luciferase expression was selected. […]

male Wistar fatty rats = assay: Oral glucose tolerance test (OGTT), hypoglycemic action; type: in vivo, rat; settings: 10 mg/kg oral; for blood glucose lowering rate (%): OGTT in WF rats, decrease rate of AUC0-120min with control group as 100%, **p ≦ 0.01 vs control; for plasma glucose AUC0-120 min: 22-week-old WF rats fasted overnight, glucose 1 g/kg oral 60 min after compound, control group 32734.2
Experimental: A hypoglycemic action of the compound of the present invention was examined in an oral glucose tolerance test (OGTT) using male Wistar fatty rats (WF rat, TAKEDA RABICS).
First, 22-week-old WF rats fasted overnight were divided into groups (6 per group), and blood samples were collected and used as plasma samples before drug administration (−60 min). Thereafter, 0.5% methylcellulose (control group) and a test compound was orally administered at 10 mg/kg. At 60 min after compound administration, each individual was loaded by oral administration of glucose at 1 g/kg, and the blood was drawn before glucose loading (0 min) and 10, 30, 60 and 120 min after loading. The plasma glucose concentration was measured using L type Waco Glu2 (Wako) and Hitachi automatic analyzer 7080 (Hitachi Instruments Service Co., Ltd.). The 0-120 min area under time curve (AUC0-120min) and the decrease rate when the control group was 100% were calculated from the plasma glucose values measured.

Row | Compound | GPR119 agonist activity (%) at 1 μM concentration (human GPR119) [%] | blood glucose lowering rate (%) (male Wistar fatty rats) | plasma glucose AUC0-120 min (male Wistar fatty rats) [mg·min/dL]
1 | CC(C)SC(=O)N1CCC(Oc2cc(N3CCc4cc(S(C)(=O)=O)ccc43)ncn2)CC1 [Example 35, S-(1-methylethyl)4-({6-[5-(methylsulfonyl)-2,3-dihydro-1H-indol-1-yl]pyrimidin-4-yl}oxy)piperidine-1-carbothioate] | 82 | 23.0** % | 25212.5
2 | CN(CCO)C(=O)c1ccc2c(c1)CCN2c1cc(OC2CCN(C(=O)OC(C)(C)C)CC2)ncn1 [Example 20, tert-butyl 4-[(6-{5-[(2-hydroxyethyl)(methyl)carbamoyl]-2,3-dihydro-1H-indol-1-yl}pyrimidin-4-yl)oxy]piperidine-1-carboxylate] | 88 |  | 
3 | CC(C)c1noc(N2CCC(N(c3cc(N4CCc5cc(S(C)(=O)=O)ccc54)ncn3)C(F)(F)F)CC2)n1 [Example 32, N-{1-[3-(1-methylethyl)-1,2,4-oxadiazol-5-yl]piperidin-4-yl}-6-[5-(methylsulfonyl)-2,3-dihydro-1H-indol-1-yl]-N-(trifluoromethyl)pyrimidin-4-amine] | 92 |  | 
4 | CC(C)OC(=O)N1CCC(Oc2cc(N3CCc4cc(NC(=O)CO)ccc43)ncn2)CC1 [Example 55, isopropyl 4-[(6-{5-[(hydroxyacetyl)amino]-2,3-dihydro-1H-indol-1-yl}pyrimidin-4-yl)oxy]piperidine-1-carboxylate] | 84 |  | 
5 | CC(C)(C)OC(=O)N1CCC(Cn2ccc3c(N4CCc5cc(S(C)(=O)=O)ccc54)ncnc32)C1 (stereo in doubt) [Example 12, tert-butyl (3S)-3-({4-[5-(methylsulfonyl)-2,3-dihydro-1H-indol-1-yl]-7H-pyrrolo[2,3-d]pyrimidin-7-yl}methyl)pyrrolidine-1-carboxylate] | 84 |  | 
6 | CCc1noc(N2CCC(Oc3cc(N4CCc5cc(S(C)(=O)=O)ccc54)ncn3)CC2)n1 [Example 41, 1-(6-{[1-(3-ethyl-1,2,4-oxadiazol-5-yl)piperidin-4-yl]oxy}pyrimidin-4-yl)-5-(methylsulfonyl)-2,3-dihydro-1H-indole] | 85 |  | 
7 | CC(C)c1noc(N2CCC(Oc3cc(N4CCc5cc(S(C)(=O)=O)cc(F)c54)ncn3)CC2)n1 [Example 64, 7-fluoro-1-[6-({1-[3-(1-methylethyl)-1,2,4-oxadiazol-5-yl]piperidin-4-yl}oxy)pyrimidin-4-yl]-5-(methylsulfonyl)-2,3-dihydro-1H-indole] | 77 |  | 
8 | CCc1cnc(N2CCC(Oc3cc(N4CCc5cc(NC(=O)CO)ccc54)ncn3)CC2)nc1 [Example 56, N-[1-(6-{[1-(5-ethylpyrimidin-2-yl)piperidin-4-yl]oxy}pyrimidin-4-yl)-2,3-dihydro-1H-indol-5-yl]-2-hydroxyacetamide] | 75 |  | 
9 | CC(C)OC(=O)N1CCC(Oc2cc(N3CCc4cc(NC(=O)[C@H]5CCCO5)ccc43)ncn2)CC1 [Example 51, isopropyl 4-{[6-(5-{[(2R)-tetrahydrofuran-2-ylcarbonyl]amino}-2,3-dihydro-1H-indol-1-yl)pyrimidin-4-yl]oxy}piperidine-1-carboxylate] | 83 |  | 
10 | CCc1cnc(N2CCC(Oc3cc(N4CCc5cc(S(C)(=O)=O)ccc54)ncn3)CC2)nc1 [Example 33, 1-(6-{[1-(5-ethylpyrimidin-2-yl)piperidin-4-yl]oxy}pyrimidin-4-yl)-5-(methylsulfonyl)-2,3-dihydro-1H-indole] | 74 | 23.4** % | 25073.3
11 | CC(C)c1noc(N2CCC(Oc3cc(N4CCc5cc(S(C)(=O)=O)ccc54)ncn3)CC2)n1 [Example 38, 1-[6-({1-[3-(1-methylethyl)-1,2,4-oxadiazol-5-yl]piperidin-4-yl}oxy)pyrimidin-4-yl]-5-(methylsulfonyl)-2,3-dihydro-1H-indole] | 79 | 24.8** % | 24612.5
12 | CC(C)c1noc(N2CCC(Oc3cc(N4CCc5cc(N6CCCC6=O)ccc54)ncn3)CC2)n1 [Example 46, 1-{1-[6-({1-[3-(1-methylethyl)-1,2,4-oxadiazol-5-yl]piperidin-4-yl}oxy)pyrimidin-4-yl]-2,3-dihydro-1H-indol-5-yl}pyrrolidin-2-one] | 80 |  | 
13 | CC(C)OC(=O)N1CCC(Oc2cc(N3CCc4cc(S(C)(=O)=O)ccc43)ncn2)CC1 [Example 18, 1-methylethyl 4-({6-[5-(methylsulfonyl)-2,3-dihydro-1H-indol-1-yl]pyrimidin-4-yl}oxy)piperidine-1-carboxylate] | 74 |  | 
14 | CC(C)OC(=O)N1CCC(N(c2cc(N3CCc4cc(S(C)(=O)=O)ccc43)ncn2)C(F)(F)F)CC1 [Example 70, 1-methylethyl 4-[{6-[5-(methylsulfonyl)-2,3-dihydro-1H-indol-1-yl]pyrimidin-4-yl}(trifluoromethyl)amino]piperidine-1-carboxylate] | 83 |  | 
15 | CCc1cnc(N2CCC(Oc3cc(N4CCc5cc(C(=O)NC(C)CO)ccc54)ncn3)CC2)nc1 (centres unmarked) [Example 23, 1-(6-{[1-(5-ethylpyrimidin-2-yl)piperidin-4-yl]oxy}pyrimidin-4-yl)-N-(1-hydroxypropan-2-yl)-2,3-dihydro-1H-indole-5-carboxamide] | 79 |  | 
16 | COCCN(C)C(=O)c1ccc2c(c1)CCN2c1cc(OC2CCN(c3nc(C(C)C)no3)CC2)ncn1 [Example 31, N-(2-methoxyethyl)-N-methyl-1-[6-({1-[3-(1-methylethyl)-1,2,4-oxadiazol-5-yl]piperidin-4-yl}oxy)pyrimidin-4-yl]-2,3-dihydro-1H-indole-5-carboxamide] | 80 |  | 
17 | CC(C)SC(=O)N1CCC(Oc2cc(N3CCc4cc(NC(=O)CO)ccc43)ncn2)CC1 [Example 54, S-(1-methylethyl) 4-[(6-{5-[(hydroxyacetyl)amino]-2,3-dihydro-1H-indol-1-yl}pyrimidin-4-yl)oxy]piperidine-1-carbothioate] | 82 |  | 
